Experimental data taken from PubChem BioAssay (NCI).
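48-hour exposure; five concentrations; linearly interpolated endpoints. Here, GI50 denotes the concentration required for 50% inhibition of growth. TGI: concentration producing complete growth inhibition.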

Experiments:
Test in all cases: inhibition of tumour cell growth, NCI panel, 48 h
CAKI-1 renal = test system: CAKI-1 renal
NCI-H522 lung = test system: NCI-H522 lung
SNB-19 CNS = test system: SNB-19 CNS
MCF7 breast = test system: MCF7 breast
SK-MEL-5 melanoma = test system: SK-MEL-5 melanoma
SK-MEL-28 melanoma = test system: SK-MEL-28 melanoma
DU-145 prostate = test system: DU-145 prostate
SW-620 colon = test system: SW-620 colon
SF-295 CNS = test system: SF-295 CNS
HL-60(TB) leukemia = test system: HL-60(TB) leukemia
SN12C renal = test system: SN12C renal
SK-OV-3 ovarian = test system: SK-OV-3 ovarian
OVCAR-5 ovarian = test system: OVCAR-5 ovarian
SNB-75 CNS = test system: SNB-75 CNS
HT29 colon = test system: HT29 colon
COLO 205 colon = test system: COLO 205 colon
UO-31 renal = test system: UO-31 renal
A549 NSCLC = test system: A549 NSCLC
U251 CNS = test system: U251 CNS
PC-3 prostate = test system: PC-3 prostate
NCI/ADR-RES ovarian = test system: NCI/ADR-RES ovarian
MDA-MB-231 breast = test system: MDA-MB-231 breast
CCRF-CEM leukemia = test system: CCRF-CEM leukemia
BT-549 breast = test system: BT-549 breast
SF-268 CNS = test system: SF-268 CNS
OVCAR-8 ovarian = test system: OVCAR-8 ovarian
HOP-62 NSCLC = test system: HOP-62 NSCLC
MDA-MB-435 = test system: MDA-MB-435
LOX IMVI melanoma = test system: LOX IMVI melanoma
TK-10 renal = test system: TK-10 renal
SK-MEL-2 melanoma = test system: SK-MEL-2 melanoma
NCI-H460 lung = test system: NCI-H460 lung
HOP-92 NSCLC = test system: HOP-92 NSCLC
IGROV1 ovarian = test system: IGROV1 ovarian
NCI-H23 lung = test system: NCI-H23 lung
KM12 colon = test system: KM12 colon
MALME-3M melanoma = test system: MALME-3M melanoma
UACC-257 melanoma = test system: UACC-257 melanoma
HCT-15 colon = test system: HCT-15 colon
MOLT-4 leukemia = test system: MOLT-4 leukemia
M14 melanoma = test system: M14 melanoma
A498 renal = test system: A498 renal
UACC-62 melanoma = test system: UACC-62 melanoma
OVCAR-4 ovarian = test system: OVCAR-4 ovarian
ACHN renal = test system: ACHN renal
T-47D breast = test system: T-47D breast
NCI-H226 lung = test system: NCI-H226 lung
HCC-2998 colon = test system: HCC-2998 colon
SF-539 CNS = test system: SF-539 CNS
OVCAR-3 ovarian = test system: OVCAR-3 ovarian
786-0 renal = test system: 786-0 renal
RPMI-8226 leukemia = test system: RPMI-8226 leukemia
HCT-116 colon = test system: HCT-116 colon

Compound `Cc1ccc(Nc2cc(C)nc(NCCCNc3ccnc4cc(Cl)ccc34)n2)cc1` has a GI50 (CAKI-1 renal) of 1460 nM, a TGI (CAKI-1 renal) of 2850 nM and a GI50 (NCI-H522 lung) of 1770 nM. It also gave a TGI (NCI-H522 lung) of 3370 nM, a GI50 (SNB-19 CNS) of 1750 nM and a TGI (SNB-19 CNS) of 3840 nM. It also gave a GI50 (MCF7 breast) of 1160 nM, a TGI (MCF7 breast) of 2720 nM and a GI50 (SK-MEL-5 melanoma) of 1400 nM. For the same compound, the TGI (SK-MEL-5 melanoma) was 2710 nM, the GI50 (SK-MEL-28 melanoma) was 1620 nM and the TGI (SK-MEL-28 melanoma) was 3060 nM. For the same compound, the GI50 (DU-145 prostate) was 1970 nM, the TGI (DU-145 prostate) was 4140 nM and the GI50 (SW-620 colon) was 1310 nM. The TGI (SW-620 colon) was 2830 nM, the GI50 (SF-295 CNS) was 1510 nM and the TGI (SF-295 CNS) was 2920 nM. The GI50 (HL-60(TB) leukemia) was 1840 nM, the TGI (HL-60(TB) leukemia) was 4810 nM and the GI50 (SN12C renal) was 1490 nM. The TGI (SN12C renal) was 3110 nM, the GI50 (SK-OV-3 ovarian) was 1570 nM and the TGI (SK-OV-3 ovarian) was 3350 nM. The GI50 (OVCAR-5 ovarian) was 1850 nM, the TGI (OVCAR-5 ovarian) was 4620 nM and the GI50 (SNB-75 CNS) was 1300 nM. It also gave a TGI (SNB-75 CNS) of 2560 nM, a GI50 (HT29 colon) of 481 nM and a TGI (HT29 colon) of 2060 nM. It also gave a GI50 (COLO 205 colon) of 1360 nM, a TGI (COLO 205 colon) of 2770 nM and a GI50 (UO-31 renal) of 1430 nM. The TGI (UO-31 renal) was 2870 nM, the GI50 (A549 NSCLC) was 1650 nM and the TGI (A549 NSCLC) was 3410 nM. The GI50 (U251 CNS) was 1320 nM, the TGI (U251 CNS) was 2670 nM and the GI50 (PC-3 prostate) was 1570 nM. The TGI (PC-3 prostate) was 3790 nM, the GI50 (NCI/ADR-RES ovarian) was 1730 nM and the TGI (NCI/ADR-RES ovarian) was 3540 nM. It also gave a GI50 (MDA-MB-231 breast) of 1380 nM, a TGI (MDA-MB-231 breast) of 2870 nM and a GI50 (CCRF-CEM leukemia) of 945 nM. It also gave a TGI (CCRF-CEM leukemia) of 3790 nM, a GI50 (BT-549 breast) of 1630 nM and a TGI (BT-549 breast) of 3400 nM. The GI50 (SF-268 CNS) was 1520 nM, the TGI (SF-268 CNS) was 3140 nM and the GI50 (OVCAR-8 ovarian) was 1670 nM. The TGI (OVCAR-8 ovarian) was 3250 nM, the GI50 (HOP-62 NSCLC) was 1380 nM and the TGI (HOP-62 NSCLC) was 2780 nM. The GI50 (MDA-MB-435) was 1410 nM, the TGI (MDA-MB-435) was 2700 nM and the GI50 (LOX IMVI melanoma) was 1380 nM. For the same compound, the TGI (LOX IMVI melanoma) was 2830 nM, the GI50 (TK-10 renal) was 1810 nM and the TGI (TK-10 renal) was 3290 nM. For the same compound, the GI50 (SK-MEL-2 melanoma) was 1830 nM, the TGI (SK-MEL-2 melanoma) was 3340 nM and the GI50 (NCI-H460 lung) was 1570 nM. For the same compound, the TGI (NCI-H460 lung) was 3230 nM, the GI50 (HOP-92 NSCLC) was 1160 nM and the TGI (HOP-92 NSCLC) was 2890 nM. The GI50 (IGROV1 ovarian) was 1820 nM, the TGI (IGROV1 ovarian) was 3980 nM and the GI50 (NCI-H23 lung) was 1780 nM. The TGI (NCI-H23 lung) was 3630 nM, the GI50 (KM12 colon) was 1690 nM and the TGI (KM12 colon) was 3260 nM. For the same compound, the GI50 (MALME-3M melanoma) was 1820 nM, the TGI (MALME-3M melanoma) was 3740 nM and the GI50 (UACC-257 melanoma) was 1740 nM. For the same compound, the TGI (UACC-257 melanoma) was 3220 nM, the GI50 (HCT-15 colon) was 767 nM and the TGI (HCT-15 colon) was 2210 nM. For the same compound, the GI50 (MOLT-4 leukemia) was 2010 nM, the TGI (MOLT-4 leukemia) was 6670 nM and the GI50 (M14 melanoma) was 1560 nM. The TGI (M14 melanoma) was 3330 nM, the GI50 (A498 renal) was 1060 nM and the TGI (A498 renal) was 2400 nM. The GI50 (UACC-62 melanoma) was 1680 nM, the TGI (UACC-62 melanoma) was 3190 nM and the GI50 (OVCAR-4 ovarian) was 1240 nM. It also gave a TGI (OVCAR-4 ovarian) of 2820 nM, a GI50 (ACHN renal) of 1540 nM and a TGI (ACHN renal) of 2910 nM. It also gave a GI50 (T-47D breast) of 1750 nM, a TGI (T-47D breast) of 4140 nM and a GI50 (NCI-H226 lung) of 2140 nM. The TGI (NCI-H226 lung) was 5910 nM, the GI50 (HCC-2998 colon) was 1380 nM and the TGI (HCC-2998 colon) was 2800 nM. For the same compound, the GI50 (SF-539 CNS) was 1590 nM, the TGI (SF-539 CNS) was 3050 nM and the GI50 (OVCAR-3 ovarian) was 1700 nM. The TGI (OVCAR-3 ovarian) was 3500 nM, the GI50 (786-0 renal) was 1730 nM and the TGI (786-0 renal) was 3310 nM. The GI50 (RPMI-8226 leukemia) was 1500 nM, the TGI (RPMI-8226 leukemia) was 3950 nM and the GI50 (HCT-116 colon) was 1090 nM. The TGI (HCT-116 colon) was 2810 nM.
